# Results published in patent US6916820B1, “Neurotrophic substituted pyrimidines” (Krenitsky Pharmaceuticals, Inc., priority 1999, dated 2005).
# Legend:
# [1] = system: choline acetyltransferase (ChAT) activity in PC12 cells; assay: Choline acetyltransferase (ChAT) assay in NGF-treated PC12 cells (screen for NGF-like activity); assay type: cell-based, rat; conditions: 3 days incubation with test compound, compared with NGF alone
# Protocol: Cultured PC12 cells (rat adrenal pheochromocytoma from ATCC) have receptors for NGF. Responses include promotion of neurite outgrowth and elevation of choline acetyltransferase (ChAT) (L. A. Green and A. S. Tischler, Cell Neurobiol., 3, 373 (1982)).
# The following assay is modified from that described in H L White and P W Scates, Neurochem. Res., 16, 63 (1991). PC12 cells were cultured at 37° C. in RPMI supplemented with HEPES buffer, pH 7.5 (to 10 mM), fetal bovine serum, horse serum, glutamine, penicillin, streptomycin and non-essential amino acids. Cultures were split 1:3 every 3 to 4 days. Exponentially dividing cells were plated into fresh medium on collagen-coated 12-well plastic dishes (10^5 cells/well). After allowing one day for cell attachment, the medium was replaced with low serum medium, with or without test compounds with each condition in triplicate. The medium may contain up to 0.2% ethanol, which was used as a solvent for most compounds tested. Cells were examined for morphological changes using an Olympus IMT-2 inverted research microscope. After 3 days incubation with test compounds, medium was removed and replaced with 0.2 ml of lysis and ChAT assay mixture. The plates were incubated at 37° C. for 2 hours and then placed into a freezer at −20° C. […]
# The assay mixture contained 100 mM phosphate, pH 7.4, 0.1% NP-40, 150 mM NaCl, 1.5 mM choline, 10 mM EDTA, 0.1 mM eserine, 0.1 mM acetyl-coenzyme A and about 0.5 uCi (40-70 Ci/mol) [14C]acetyl-coenzyme A in each ml of mixture. […] The vials were centrifuged at 3000 rpm (max.=16 cm) for 15 minutes and then counted in a Beckman LS6500 scintillation counter. […]
# The following data were obtained for representative compounds of the present invention which (1) increased the activity of choline acetyltransferase ChAT), (2) enhanced NGF-stimulated neurite outgrowth and/or (3) potentiated or appeared additive with the action of NGF itself. The concentration at which the test compound doubled the ChAT activity over the activity with NGF alone (no test compound) was recorded as the EC2x value: […]
melting point [°C],Compound,EC2x (concentration at which the test compound doubled the ChAT activity over the activity with NGF alone) [1] [µM]
155 to 156,Cl.Nc1ncc(Oc2ccc(Cl)cc2)c(N[C@H]2CC[C@H](O)CC2)n1,
,"Cl.Nc1ncc(Oc2ccc(Cl)cc2)c(NC2CCC(=O)CC2)n1 [Example 10, 2-amino-5-(4-chlorophenoxy)-4-(4-oxocyclohexylamino)pyrimidine hydrochloride]",0.7
138 to 145,"Cl.Nc1ncc(Oc2ccc(Cl)cc2Cl)c(N[C@H]2CC[C@H](O)CC2)n1 [Example 5, 2-amino-5-(2,4-dichlorophenoxy)-4-(trans-4-hydroxycyclohexylamino)pyrimidine hydrochloride]",1.2
154 to 155,"Nc1ncc(Oc2ccc(Cl)cc2)c(N[C@H]2CC[C@H](O)CC2)n1 [Example 3, 2-amino-5-(4-chlorophenoxy)-4-(trans-4-hydroxycyclohexylamino)pyrimidine]",0.4
